Measurements taken from ChEMBL document CHEMBL1909046, “DrugMatrix in vitro pharmacology data”.

How the values were obtained:
[1] = target: C-C chemokine receptor type 5 (Homo sapiens, UniProt P51681); type: cell membranes, Membrane; details: hek293; further: in other assays of this panel Not Active means under 50% inhibition at 10 µM
[2] = target: 5-hydroxytryptamine receptor 2B (Homo sapiens, UniProt P41595); type: cell membranes, CHO-K1, Membrane; details: cho-k1; further: in other assays of this panel Not Active means under 50% inhibition at 10 µM
Chain of 5-hydroxytryptamine receptor 2B (P41595 whole entry): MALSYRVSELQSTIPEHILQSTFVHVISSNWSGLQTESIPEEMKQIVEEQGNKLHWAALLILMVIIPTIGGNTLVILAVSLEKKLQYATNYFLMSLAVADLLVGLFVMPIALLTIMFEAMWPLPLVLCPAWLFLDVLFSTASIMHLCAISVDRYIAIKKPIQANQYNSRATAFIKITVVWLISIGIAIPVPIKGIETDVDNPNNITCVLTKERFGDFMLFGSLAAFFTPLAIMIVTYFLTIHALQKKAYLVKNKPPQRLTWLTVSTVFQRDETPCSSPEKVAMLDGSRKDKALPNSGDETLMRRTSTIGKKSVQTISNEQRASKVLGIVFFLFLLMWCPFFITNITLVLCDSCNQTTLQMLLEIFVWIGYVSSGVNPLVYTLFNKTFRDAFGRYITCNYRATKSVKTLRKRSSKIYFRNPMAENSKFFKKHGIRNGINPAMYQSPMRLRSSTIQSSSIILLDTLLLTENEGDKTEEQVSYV

[3] = target: T1, Interstitial collagenase (Homo sapiens, UniProt P03956); assay: biochemical; type: tissue-based, Rheumatoid synovial fibroblasts;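 further: MMP-1 enzyme inhibition assay using a peptide substrate; in other assays of this panel Not Active means under 50% inhibition at 10 µM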
T1 sequence (P03956 whole entry): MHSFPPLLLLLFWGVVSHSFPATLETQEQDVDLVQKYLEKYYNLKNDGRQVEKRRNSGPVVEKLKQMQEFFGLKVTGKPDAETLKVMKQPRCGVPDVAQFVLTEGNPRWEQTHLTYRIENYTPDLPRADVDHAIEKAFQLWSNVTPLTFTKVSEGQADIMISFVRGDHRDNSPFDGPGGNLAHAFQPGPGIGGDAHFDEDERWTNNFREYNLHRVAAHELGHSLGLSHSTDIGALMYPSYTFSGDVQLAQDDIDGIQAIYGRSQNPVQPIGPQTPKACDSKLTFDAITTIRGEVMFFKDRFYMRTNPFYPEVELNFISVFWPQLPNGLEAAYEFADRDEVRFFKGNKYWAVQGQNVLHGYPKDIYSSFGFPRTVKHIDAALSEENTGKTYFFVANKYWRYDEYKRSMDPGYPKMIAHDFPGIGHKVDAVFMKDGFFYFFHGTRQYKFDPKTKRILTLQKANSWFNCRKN

[4] = target: T2, Alpha-2C adrenergic receptor (Homo sapiens, UniProt P18825); assay: DRUGMATRIX: Adrenergic Alpha-2C radioligand binding (ligand: [3H] MK-912); type: cell membranes, Sf9, Membrane; details: sf9
T2 sequence (P18825 whole entry): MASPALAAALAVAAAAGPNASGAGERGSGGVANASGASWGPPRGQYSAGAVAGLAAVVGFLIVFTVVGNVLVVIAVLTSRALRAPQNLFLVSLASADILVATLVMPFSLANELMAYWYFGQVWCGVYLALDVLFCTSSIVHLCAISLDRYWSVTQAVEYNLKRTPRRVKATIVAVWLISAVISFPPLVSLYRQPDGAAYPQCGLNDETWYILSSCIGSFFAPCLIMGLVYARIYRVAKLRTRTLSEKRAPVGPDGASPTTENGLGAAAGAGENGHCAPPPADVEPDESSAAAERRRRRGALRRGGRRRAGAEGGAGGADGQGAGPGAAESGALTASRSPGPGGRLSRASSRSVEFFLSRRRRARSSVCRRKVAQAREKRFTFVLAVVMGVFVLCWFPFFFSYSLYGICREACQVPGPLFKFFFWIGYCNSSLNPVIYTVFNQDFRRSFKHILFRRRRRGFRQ

[5] = target: T3, 5-hydroxytryptamine receptor 1A (Rattus norvegicus, UniProt P19327); type: cell membranes, CHO-K1, Membrane; details: cho-k1; further: in other assays of this panel Not Active means under 50% inhibition at 10 µM
T3 sequence (P19327 whole entry): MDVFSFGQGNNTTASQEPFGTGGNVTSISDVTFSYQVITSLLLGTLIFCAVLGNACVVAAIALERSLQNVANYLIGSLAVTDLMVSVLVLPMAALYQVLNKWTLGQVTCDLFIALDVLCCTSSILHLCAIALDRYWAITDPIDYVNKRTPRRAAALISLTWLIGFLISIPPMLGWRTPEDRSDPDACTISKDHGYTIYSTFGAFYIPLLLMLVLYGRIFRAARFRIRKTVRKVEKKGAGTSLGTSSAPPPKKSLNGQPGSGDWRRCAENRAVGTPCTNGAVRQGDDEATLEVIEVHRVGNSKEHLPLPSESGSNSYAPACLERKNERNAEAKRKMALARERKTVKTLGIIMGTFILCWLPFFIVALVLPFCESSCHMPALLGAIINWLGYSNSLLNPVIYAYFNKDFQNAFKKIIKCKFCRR

[6] = target: Mitogen-activated protein kinase 3 (Homo sapiens, UniProt P27361); assay: DRUGMATRIX: Protein Serine/Threonine Kinase, ERK1 enzyme inhibition (substrate: Myelin Basic Protein); design: species or system Escherichia coli; details: Not Active = under 50% inhibition at 10 µM
Chain of Mitogen-activated protein kinase 3 (P27361 whole entry): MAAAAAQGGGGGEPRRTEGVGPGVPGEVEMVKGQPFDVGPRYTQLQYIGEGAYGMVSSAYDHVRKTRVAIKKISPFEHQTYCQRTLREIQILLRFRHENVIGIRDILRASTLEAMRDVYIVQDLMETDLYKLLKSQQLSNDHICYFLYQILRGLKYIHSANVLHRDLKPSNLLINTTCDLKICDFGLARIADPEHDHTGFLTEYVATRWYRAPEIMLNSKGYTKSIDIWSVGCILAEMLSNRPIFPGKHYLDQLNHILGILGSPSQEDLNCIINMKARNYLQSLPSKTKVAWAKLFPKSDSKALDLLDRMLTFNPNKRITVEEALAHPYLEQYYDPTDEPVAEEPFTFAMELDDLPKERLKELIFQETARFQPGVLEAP

[7] = target: T4, Cholecystokinin receptor type A (Homo sapiens, UniProt P32238); type: cell membranes, Membrane; details: 1321-n1; further: in other assays of this panel Not Active means under 50% inhibition at 10 µM
T4 sequence (P32238 whole entry): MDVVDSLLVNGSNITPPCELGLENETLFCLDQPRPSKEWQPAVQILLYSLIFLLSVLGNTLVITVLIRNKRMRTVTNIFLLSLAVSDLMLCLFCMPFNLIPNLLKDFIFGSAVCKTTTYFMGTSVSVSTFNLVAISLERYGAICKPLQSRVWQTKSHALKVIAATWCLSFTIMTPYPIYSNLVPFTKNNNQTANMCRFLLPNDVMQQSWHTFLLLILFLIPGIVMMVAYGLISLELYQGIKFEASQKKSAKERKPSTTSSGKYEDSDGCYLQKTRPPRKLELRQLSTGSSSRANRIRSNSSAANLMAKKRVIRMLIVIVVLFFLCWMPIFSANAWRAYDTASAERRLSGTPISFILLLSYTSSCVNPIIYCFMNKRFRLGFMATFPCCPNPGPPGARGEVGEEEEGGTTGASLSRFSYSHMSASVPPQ

Chain of C-C chemokine receptor type 5 (P51681 whole entry): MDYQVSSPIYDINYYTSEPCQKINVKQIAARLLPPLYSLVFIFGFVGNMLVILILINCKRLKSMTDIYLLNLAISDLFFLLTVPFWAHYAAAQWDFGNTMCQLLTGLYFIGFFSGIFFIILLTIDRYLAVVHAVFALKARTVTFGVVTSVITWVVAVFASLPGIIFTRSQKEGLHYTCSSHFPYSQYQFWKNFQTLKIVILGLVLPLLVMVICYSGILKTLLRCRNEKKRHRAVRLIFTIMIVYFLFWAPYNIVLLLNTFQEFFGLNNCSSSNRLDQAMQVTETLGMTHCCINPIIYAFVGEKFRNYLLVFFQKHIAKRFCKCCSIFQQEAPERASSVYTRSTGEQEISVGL

ZIRCONIUM(IV) CHLORIDE
Not Active: IC50 [1] | Ki [1] | IC50 [2] | Ki [2] | IC50 [3] | Ki [3] | IC50 [4] | Ki [4] | IC50 [5] | Ki [5] | IC50 [6] | Ki [6] | IC50 [7] | Ki [7]
